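Each compound was tested at five concentrations against cells in 96-well plates for 48 hours. GI50 = concentration required for 50% inhibition of growth.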 Activity calls are given as the source filed them. No stated cut-off is given here; in the data, active = GI50 up to about 1.1 µM and inactive = higher.

Among the test systems are 786-0; CAKI-1; HCT-116; HL-60; Hs-578T; KM12; NCI-H226; NCI-H23; NCI/ADR-RES; OVCAR-4; OVCAR-8; RXF 393; SK-MEL-2; SK-MEL-5; SK-OV-3; SNB-19; SR; UO-31; SNB-75; T47D.
Holding throughout (experiment): NCI-60 cell line screen, 48 h

Regarding `CC[C@H]1C=CCC[C@@]2(C[C@@H]3CC[C@H]4[C@H](C(=O)OCCCCCCCCCCCCCCCC(=O)N(CCCN)C[C@@H](O)CCN)[C@]5(CCC[C@@H](C)O5)NC(=[N+]34)N2)O1`, the GI50 was 0.543 µM (active) in the assay with 786-0; 0.532 µM (active) in the assay with CAKI-1; 0.344 µM (active) in the assay on HCT-116; 0.345 µM (active) in the assay with HL-60; 1.59 µM (inactive) with Hs-578T; 0.509 µM (active) in the assay on KM12. Besides, the GI50 with NCI-H226 was 1.04 µM (active); in the assay on NCI-H23 it was 1.34 µM (inactive); in the assay with NCI/ADR-RES it was 1.63 µM (inactive); in the assay with OVCAR-4 it was 0.863 µM (active); in the assay on OVCAR-8, 0.693 µM (active); in the assay on RXF 393 it was 1.6 µM (inactive). Also, the GI50 with SK-MEL-2 was 0.53 µM (active); in the assay with SK-MEL-5, 0.268 µM (active); in the assay on SK-OV-3 it was 1.65 µM (inactive); with SNB-19 it was 1.21 µM (inactive); in the assay with SR, 0.323 µM (active); with UO-31, 0.471 µM (active).

Take `CCOP(=O)(/C=C\n1cnc2c(=O)n(C(C)=O)c(N)nc21)OCC`: the GI50 with 786-0, in the assay with CAKI-1, with HCT-116, in the assay on HL-60, in the assay with KM12 and in the assay with NCI-H226 was > 100 µM (inactive) in each case. For the same molecule, the GI50 in the assay on NCI-H23, in the assay with NCI/ADR-RES, with OVCAR-4, with OVCAR-8, in the assay with RXF 393 and in the assay on SK-MEL-5 was > 100 µM (inactive) in each case. For the same molecule, the GI50 in the assay on SK-OV-3, with SNB-19, in the assay on SNB-75 and in the assay on T47D was > 100 µM (inactive) each time.

In the case of `CC(=O)[C@H]1[C@H](O)C[C@@]2(C)[C@@H]3CCc4cc(O)c(OC5OC(CO)C(O)C(O)C5O)cc4C3(C)C(=O)C[C@]12C` (stereo partly drawn), the GI50 with 786-0, with CAKI-1, in the assay with HCT-116, in the assay with HL-60, in the assay on KM12 and with NCI-H226 was > 100 µM (inactive) each time. Also, the GI50 with NCI-H23, with NCI/ADR-RES, in the assay on OVCAR-4, in the assay on OVCAR-8, in the assay with RXF 393 and with SK-MEL-2 was > 100 µM (inactive) in each case. In addition, the GI50 in the assay on SK-MEL-5, with SK-OV-3, in the assay on SNB-19, in the assay with SNB-75, in the assay with SR and in the assay on T47D was > 100 µM (inactive) each time. Further, the GI50 with UO-31 was > 100 µM (inactive).

Turning to `Cc1ccc2c(c1)Nc1cc(C(F)(F)F)ccc1[PH]2=O` (stereo not drawn), the GI50 in the assay with 786-0 is 66.4 µM (inactive); in the assay on CAKI-1, 47.4 µM (inactive); in the assay with HCT-116, 42.2 µM (inactive); in the assay with HL-60 it was 29.3 µM (inactive); with KM12, 31.5 µM (inactive); in the assay with NCI-H226, 21.3 µM (inactive). Also, the GI50 with NCI-H23 is 22.2 µM (inactive); in the assay on NCI/ADR-RES, 67.1 µM (inactive); with OVCAR-4 it was 11.6 µM (inactive); in the assay on OVCAR-8 it was 63.5 µM (inactive); with RXF 393, 23.2 µM (inactive); with SK-MEL-2, 31 µM (inactive). The GI50 in the assay with SK-MEL-5 was 15.3 µM (inactive); with SK-OV-3 it was 65.2 µM (inactive); in the assay with SNB-19, 18.9 µM (inactive); in the assay with SNB-75, 11.8 µM (inactive); in the assay on SR it was 37.4 µM (inactive); in the assay with T47D it was 27.6 µM (inactive). Further, the GI50 in the assay on UO-31 was 0.225 µM (active).

For the molecule `Cc1c(O)c(OC2OC(CO)C(O)C(O)C2O)cc2c1C=C[C@@H]1[C@@]2(C)C(=O)C[C@]2(C)[C@@H]([C@@](C)(O)C(O)/C=C/C(C)(C)O)[C@H](O)C[C@@]12C` (stereo partly drawn), the GI50 in the assay with 786-0, in the assay with CAKI-1, in the assay on HCT-116, in the assay with HL-60, with KM12 and with NCI-H226 was > 100 µM (inactive) each time. In addition, the GI50 with NCI-H23, in the assay on NCI/ADR-RES, in the assay on OVCAR-4, with OVCAR-8, with RXF 393 and in the assay on SK-MEL-2 was > 100 µM (inactive) each time. Further, the GI50 in the assay on SK-MEL-5, in the assay on SK-OV-3, in the assay on SNB-19, in the assay on SNB-75, with SR and with T47D was > 100 µM (inactive) in each case. Further, in the assay on UO-31, the GI50 was > 100 µM (inactive).

Turning to `NN/C(=N\S(=O)(=O)c1cc2ccccc2s1)Nc1ccc(Cl)cc1`, the GI50 in the assay on 786-0 is 19.6 µM (inactive); in the assay with CAKI-1 it was 18.5 µM (inactive); in the assay on HCT-116 it was 16.9 µM (inactive); with HL-60 it was 22.4 µM (inactive); in the assay on KM12, 19.1 µM (inactive); in the assay on NCI-H226, 19.3 µM (inactive). Moreover, the GI50 in the assay on NCI-H23 is 20.3 µM (inactive); in the assay with NCI/ADR-RES, 20 µM (inactive); in the assay with OVCAR-4, 17.5 µM (inactive); with OVCAR-8 it was 22.4 µM (inactive); in the assay on RXF 393, 15.5 µM (inactive); in the assay with SK-MEL-2, 18.1 µM (inactive). For the same molecule, the GI50 with SK-MEL-5 was 17.9 µM (inactive); in the assay with SK-OV-3 it was 34.9 µM (inactive); with SNB-19 it was 27 µM (inactive); in the assay with SNB-75 it was 20.6 µM (inactive); in the assay with SR, 40.1 µM (inactive); in the assay on T47D, 17.8 µM (inactive). Moreover, the GI50 with UO-31 is 18 µM (inactive).

Take `CCCCCC#CCOC(=O)C(=[N+]=[N-])P(=O)(c1ccccc1)c1ccccc1`: the GI50 was > 10 µM (inactive) in the assay with 786-0; 8.26 µM (inactive) with HCT-116; > 10 µM (inactive) with HL-60; > 10 µM (inactive) in the assay with Hs-578T; > 10 µM (inactive) with KM12; > 10 µM (inactive) with NCI-H226. The GI50 with NCI-H23, in the assay with OVCAR-8, in the assay with RXF 393, with SK-MEL-5, in the assay on SK-OV-3 and with SNB-19 was > 10 µM (inactive) each time. In addition, the GI50 in the assay on SNB-75, in the assay with SR, with T47D and with UO-31 was > 10 µM (inactive) throughout.

As to `Cc1ccc2oc(=O)c(C(=O)Nc3nc(C45CC6CC(CC(C6)C4)C5)cs3)cc2c1`, the GI50 in the assay with 786-0, in the assay on CAKI-1, in the assay with HCT-116, with HL-60, in the assay with Hs-578T and in the assay with KM12 was > 100 µM (inactive) throughout. Besides, the GI50 in the assay with NCI-H226, in the assay with NCI-H23, in the assay with NCI/ADR-RES, with OVCAR-4, in the assay on OVCAR-8 and in the assay with RXF 393 was > 100 µM (inactive) throughout. For the same molecule, the GI50 in the assay with SK-MEL-5, with SNB-19, in the assay on SNB-75, in the assay on SR and in the assay with UO-31 was > 100 µM (inactive) in each case.

As for `COc1cccc2c1C(=O)c1c(O)c3c(c(O)c1C2=O)C[C@@](O)(C(=O)CO)CC3OC1CC(O)C(O)C(C)O1` (stereo partly drawn), the GI50 in the assay on 786-0 is 0.103 µM (active); with CAKI-1 it was 0.185 µM (active); in the assay on HCT-116, 0.0553 µM (active); with HL-60, 0.0267 µM (active); in the assay on KM12, 0.35 µM (active); with NCI-H226, 0.0218 µM (active). Also, the GI50 with NCI-H23 is 0.0879 µM (active); in the assay with NCI/ADR-RES it was 1.13 µM (inactive); with OVCAR-4, 1.01 µM (active); with OVCAR-8, 0.256 µM (active); in the assay with RXF 393, 0.238 µM (active); with SK-MEL-2 it was 0.608 µM (active). For the same molecule, the GI50 in the assay on SK-MEL-5 is 0.142 µM (active); with SK-OV-3, 0.235 µM (active); with SNB-19 it was 0.0822 µM (active); with SNB-75 it was 0.167 µM (active); in the assay on SR it was < 0.01 µM (active); in the assay on T47D, 0.286 µM (active). In the assay with UO-31, the GI50 is 0.421 µM (active).

As for `Cc1nn(C(=O)Cc2ccccc2)c2c1C(c1ccc(/C=C/c3ccccc3)cc1)SC(=N)N2` (stereo not drawn), the GI50 with 786-0, in the assay on CAKI-1, in the assay with HCT-116, with HL-60, in the assay with Hs-578T and in the assay with KM12 was > 100 µM (inactive) throughout. Besides, the GI50 with NCI-H226, in the assay with NCI-H23, in the assay on OVCAR-8, in the assay with SK-MEL-5, in the assay with SK-OV-3 and in the assay on SNB-19 was > 100 µM (inactive) in each case. For the same molecule, the GI50 in the assay on SNB-75, with T47D and in the assay on UO-31 was > 100 µM (inactive) in each case.

Regarding `COC(=O)c1onc(C2OC(C)(C)OC2C(O)COC(c2ccccc2)(c2ccccc2)c2ccccc2)c1C(=O)OC` (stereo not drawn), the GI50 with 786-0, in the assay on HCT-116, in the assay with HL-60, in the assay with Hs-578T, in the assay with KM12 and in the assay on NCI-H226 was > 100 µM (inactive) in each case. Besides, the GI50 was 72.3 µM (inactive) with NCI-H23; > 100 µM (inactive) in the assay on OVCAR-4; > 100 µM (inactive) in the assay with OVCAR-8; > 100 µM (inactive) in the assay on RXF 393; > 100 µM (inactive) in the assay with SK-MEL-2; > 100 µM (inactive) in the assay on SK-MEL-5. In addition, the GI50 in the assay with SNB-19 was > 100 µM (inactive); in the assay with SR, 84.3 µM (inactive); with T47D it was > 100 µM (inactive); with UO-31 it was > 100 µM (inactive).

(Values after ChEMBL document CHEMBL1201862, “PubChem BioAssay data set” (2004).)
